Key:
[1] = system: human HL60 myeloid leukemia cells; assay: Inhibition of clonal growth of HL60 cells; format: cell-based; conditions: effective dose that inhibited 50% clonal growth of human HL60 myeloid leukemia cells
[2] = system: MCF-7 breast cancer cells; assay: Inhibition of clonal growth of MCF-7 cells; format: cell-based, human; conditions: effective dose that inhibited 50% clonal growth of MCF-7 breast cancer cells
BNX nu/nu mice [3] = assay: Hair growth scoring in nude mice; format: in vivo; set-up: key: 1: Skin pink, no hair; 2: Skin thick, pigmented, no hair; 3: Skin thick, highly pigmented, no hair; 4: Skin thick, pigmented, scattered hair; 5: Hair 1-10% of area; 6: Hair 10-25% of area; 7: Hair 25-50% of area; 8: Hair 50-75% of area; 9: Hair >75% of area; Hair 100% covered; conditions: male nude mice, i.p. 3 times a week, at least 35 days, hair score scale 1-10
[4] = Calcemic properties: highest dose that would not cause hypercalcemia; format: in vivo, mouse; conditions: identified in previous experiments
Experimental: (§1) Vitamin D3 analogs were dissolved in absolute ethanol prior to determining the molar concentration as measured by UV absorbance using their molar extinction coefficient at […]. All the analogs were stored at −20° C. in absolute ethanol as stock solutions of 10^−3 mol/liter. The last dilution was made in phosphate buffered saline, prior to administration into mice. Vitamin D3 compounds were always protected from light. The inventors chose the highest dose that would not cause hypercalcemia. These doses, identified in previous experiments, are summarized below in Table 1.

BNX nu/nu mice [5] = assay: Hair growth scoring in nude mice; format: in vivo; set-up: key to Peak Score, Mouse 2: 1: Skin pink, no hair; 2: Skin thick, pigmented, no hair; 3: Skin thick, highly pigmented, no hair; 4: Skin thick, pigmented, scattered hair; 5: Hair 1-10% of area; 6: Hair 10-25% of area; 7: Hair 25-50% of area; 8: Hair 50-75% of area; 9: Hair >75% of area; Hair 100% covered
Experimental: In the experiments described herein, BNX nu/nu male and female mice at 8 weeks of age were used. In one series of experiments, a total of 3 males were allotted equally within each of the groups consisting of 6 different vitamin D3 compounds, and a control untreated group. In an addition, three male and 3 female mice received EB1089. All of the analogs were injected intraperitoneally (i.p.), three times a week in a volume of 200 μl phosphate buffered saline.
as §1
The inventors developed the following scale for measuring hair growth in BNX mice:
The inventors examined hair growth of nude mice as the mice received diluant (control mice), 1.25(OH)2D3 or one of 6 vitamin D3 analogs. Each group contained three mice. The effect of Vitamin D3 analogs on hair growth of nude mice was systematically assessed on each mouse by giving them scores from a scale of 1-10 (Table1), 3 times a week. The score for hair growth takes in to account the thickness and pigmentation, as both of these characteristics correlate indirectly with induction of anagen, the growth phase of the hair cycle. For example, a score of […] represents skin thickening with heavy pigmentation; this reflects the formation of the hair shaft prior to the protrusion of hair above the skin surface.

[6] = system: CYP19 gene that encodes the P450 aromatase; assay: RT-PCR RNA analysis of skin samples for CYP19 expression; format: in vivo, mice; conditions: skin samples at the highest score of 7, RT-PCR, data not shown
Experimental: Skin samples from mice were processed as is routinely done in the art. RT-PCR was performed to make cDNA which was examined for expression of CYP19 gene that encodes the P450 aromatase (9).
Skin samples at the highest score of 7 from Ro-25-9022 and control skin sample were processed to extract RNA, cDNA was made and amplified for the expression of CYP19 gene that encodes P450 aromatase.

[7] = male nude mice, i.p. 3 times a week, at least 35 days, hair score scale 1-10
[8] = male nude mice, three mice per group, i.p. 3 times a week, hair score scale 1-10
[9] = female nude mice, i.p. 3 times a week, hair score scale 1-10

| SMILES | ED50 HL60 [1] | ED50 MCF-7 [2] | Peak Score, Mouse 3 (BNX nu/nu mice [3]) | NON-HYPERCALCEMIC DOSE [4] | Peak Score, Mouse 1 (BNX nu/nu mice [5]; [7]) | Peak Score, Mouse 2 (BNX nu/nu mice [5]; [7]) | Mean Peak Score (BNX nu/nu mice [5]; [8]) | hair growth score reached, not exceeded (BNX nu/nu mice [5]; nude mice, scored 3 times a week, scale 1-10) | time of second cycle of hair growth from the first cycle (BNX nu/nu mice [5]; nude mice) | timing of first peak of hair growth, females vs males (BNX nu/nu mice [5]; FIG. 3F) | ability to stimulate hair growth in male and female mice (BNX nu/nu mice [5]; both males and females) | latency period to achieve maximal hair growth (BNX nu/nu mice [5]; female nude mice) | Peak Score, Mouse 1 (BNX nu/nu mice [5]; [9]) | Peak Score, Mouse 2 (BNX nu/nu mice [5]; [9]) | Peak Score, Mouse 3 (BNX nu/nu mice [5]; [9]) | Mean Peak Score (BNX nu/nu mice [5]; female nude mice, three mice, i.p. 3 times a week, hair score scale 1-10) | latency period to achieve maximal hair growth (BNX nu/nu mice [5]; male nude mice) | expression of CYP19 gene (P450 aromatase) vs control skin sample [6] |
| --- | --- | --- | --- | --- | --- | --- | --- | --- | --- | --- | --- | --- | --- | --- | --- | --- | --- | --- |
| C=C1/C(=C\C=C2/CCC[C@]3(C)[C@@H]([C@H](C)CCCC(C)(C)O)CC[C@@H]23)C[C@@H](O)C[C@@H]1O [1,25(OH)2D3, reference compound] | 1 × 10^−8 MOLAR UNITS | 1 × 10^−7 MOLAR UNITS | 4 | 0.0626 μg/mouse | 5 (Hair 1-10% of area) | 5 (Hair 1-10% of area) | 4.67 | 5 (Hair 1-10% of area) |  |  |  |  |  |  |  |  |  |  |
| C[C@]12CCC/C(=C\C=C3C[C@@H](O)C[C@H](O)C3)C1CC[C@@H]2C1(C/C=C/C(O)(C(F)(F)F)C(F)(F)F)CC1 (stereo partly shown) [Ro27-0574] | 2 × 10^−10 MOLAR UNITS | 2 × 10^−9 MOLAR UNITS | 4 |  | 8 (Hair 50-75% of area) | 8 (Hair 50-75% of area) | 6.67 |  | about 16 days |  |  |  |  |  |  |  |  |  |
| C=C1/C(=C\C=C2/CCC[C@]3(C)[C@@H]([C@H](C)/C=C/C=C/C(O)(CC)CC)CC[C@@H]23)C[C@@H](O)C[C@@H]1O [EB1089] | 5 × 10^−11 MOLAR UNITS |  | 4 | 0.5 µg/kg | 7 (Hair 25-50% of area) | 8 (Hair 50-75% of area) | 6.33 |  | about 16 days | first peak of hair growth in females slightly preceded the peak in the males | Both males and females had hair stimulation | about 9 days | 7 (Hair 25-50% of area) | 7 (Hair 25-50% of area) | 7 (Hair 25-50% of area) | 7.00 | about 18 days |  |
| CC(C)(O)CCCC(CCCC(C)(C)O)[C@H]1CCC2/C(=C/C=C3C[C@@H](O)C[C@H](O)C3)CCC[C@@]21C (stereo partly shown) [Ro27-5646] | 2 × 10^−10 MOLAR UNITS | 4 × 10^−10 MOLAR UNITS | 6 (Hair 10-25% of area) | 0.01 μg/mouse | 8 (Hair 50-75% of area) | 8 (Hair 50-75% of area) | 7.33 |  |  |  |  |  |  |  |  |  |  |  |
| C[C@H](C/C=C/C(O)(C(F)(F)F)C(F)(F)F)C1=CCC2/C(=C/C=C3C[C@@H](O)C[C@H](O)C3)CCC[C@]12C (stereo partly shown) [Ro25-9022, 1,25-(OH)2-16-ene-23-yne-26,27-F6-19-nor-D3] | 2 × 10^−10 MOLAR UNITS | 6 × 10^−10 MOLAR UNITS | 4 | 0.00125 μg/mouse | 8 (Hair 50-75% of area) | 4 | 6.33 |  |  |  |  |  |  |  |  |  |  | equivalent expression |
| C=C1/C(=C\C=C2/CCC[C@]3(C)[C@@H]([C@@H](C)OCCCC(O)(CC)CC)CC[C@@H]23)C[C@@H](O)C[C@@H]1O [KH1060, 1α, 25—(OH)2-20-epi-22-oxa-24,26,27-trishomo-vitamin D3] | 1 × 10^−12 MOLAR UNITS | 1 × 10^−10 MOLAR UNITS | 6 (Hair 10-25% of area) | 0.0125 μg/mouse | 8 (Hair 50-75% of area) | 6 (Hair 10-25% of area) | 6.67 |  |  |  |  |  |  |  |  |  | ~21 days |  |
| C[C@H](CCC(=O)C(C)(C)O)C1=CCC2/C(=C/C=C3C[C@@H](O)C[C@H](O)C3)CCC[C@]12C (stereo partly shown) [Ro26-9114] | 1 × 10^−10 MOLAR UNITS |  | 4 | 6 μg/mouse | 8 (Hair 50-75% of area) | 8 (Hair 50-75% of area) | 5.33 |  | about 16 days |  |  |  |  |  |  |  | about 9 days |  |
